# The source made the active and inactive calls. No cut-off for these calls is given here. Peptide text beside a SMILES is read from it.
# Columns and labels:
# Salmonella typhimurium [1] = test: Antibacterial activity against multi-drug resistant Salmonella typhimurium DT104 infected in ICR mouse model assessed as reduction in bacterial population in fecus at 2 mg/kg, ip administered for 3 days; format: functional, organism-based; details: Salmonella enterica subsp. enterica serovar Typhimurium, time 3.0 day
# RAW264.7 [2] = test: Inhibition of LPS-stimulated IL-8 production in mouse RAW264.7 cells at 1 to 128 ug/ml incubated for 24 hrs by ELISA analysis; format: functional, cell-based; details: dose 1-128 µg/ml
# RAW264.7 [3] = test: Inhibition of LPS-stimulated NO production in mouse RAW264.7 cells incubated for 24 hrs by Griess reagent based analysis; format: functional, cell-based; details: dose 1-128 µg/ml
# Salmonella typhimurium [4] = test: Antibacterial activity against Salmonella typhimurium DT104 in the presence of MgCl2 by MH broth based assay; format: functional, Salmonella enterica subsp. enterica serovar Typhimurium; details: Salmonella enterica
# Salmonella typhimurium [5] = test: Antibacterial activity against Salmonella typhimurium DT104 assessed as reduction in IL-8 mRNA level in ileum at 20 mg/kg, ip administered for 3 days and measured on day 7 by RT-PCR analysis; format: functional, organism-based; details: Salmonella enterica subsp. enterica serovar Typhimurium, time 7.0 day
# Escherichia coli = test: Antibacterial activity against Escherichia coli O157:H7 CICC 21530 incubated overnight by standard microtiter dilution method; format: functional
# Salmonella typhimurium [6] = test: Antibacterial activity against Salmonella typhimurium DT104 in the presence of NH4Cl by MH broth based assay; format: functional, Salmonella enterica subsp. enterica serovar Typhimurium; details: Salmonella enterica
# Salmonella typhimurium [7] = test: Antibacterial activity against Salmonella typhimurium DT104 infected in ICR mouse model assessed as increase in ZO-1 expression in villous at 20 mg/kg, ip administered for 3 days and measured on day 7 […] by immunohistochemistry analysis; format: functional, organism-based; details: Salmonella enterica subsp. enterica serovar Typhimurium, time 7.0 day
# Salmonella typhimurium [8] = test: Antibacterial activity against Salmonella typhimurium DT104 assessed as increase in ZO-1 mRNA level in colon at 20 mg/kg, ip administered for 3 days and measured on day 7 by RT-PCR analysis; format: functional, organism-based; details: Salmonella enterica subsp. enterica serovar Typhimurium, time 7.0 day
# Enterococcus faecalis = test: Antibacterial activity against Enterococcus faecalis ATCC 29212 incubated overnight by standard microtiter dilution method; format: functional
# Salmonella typhimurium [9] = test: Antibacterial activity against Salmonella typhimurium CICC 21483 incubated overnight by standard microtiter dilution method; format: functional, Salmonella enterica subsp. enterica serovar Typhimurium; details: Salmonella enterica
# Lipid bilayer = test: Induction of outer membrane permeabilization in Salmonella typhimurium DT104 at 0.625 to 15 microg/ml by NPN uptake based fluorescence spectrophotometric analysis; details: Salmonella enterica subsp. enterica serovar Typhimurium, dose 0.625-15 µg/ml
# RAW264.7 [10] = test: Inhibition of LPS-stimulated TNF-alpha production in mouse RAW264.7 cells at 1 to 128 ug/ml incubated for 24 hrs by ELISA analysis; format: functional, cell-based; details: dose 1-128 µg/ml
# Erythrocyte = test: Hemolytic activity in human Red blood cells assessed as hemolysis incubated for 1 hrs by absorbance based microplate reader analysis; format: toxicity, cell-based
# Salmonella typhimurium [11] = test: Antibacterial activity against Salmonella typhimurium DT104 assessed as increase in claudin mRNA level in colon at 20 mg/kg, ip administered for 3 days and measured on day 7 by RT-PCR analysis; format: functional, organism-based; details: Salmonella enterica subsp. enterica serovar Typhimurium, time 7.0 day
# Salmonella typhimurium [12] = test: Antibacterial activity against Salmonella typhimurium DT104 assessed as increase in occludin mRNA level in colon at 20 mg/kg, ip administered for 3 days and measured on day 7 by RT-PCR analysis; format: functional, organism-based; details: Salmonella enterica subsp. enterica serovar Typhimurium, time 7.0 day
# RAW264.7 [13] = test: Anti-inflammatory activity in mouse RAW264.7 cells assessed as inhibition of LPS-induced TNF-alpha mRNA expression at 15 ug/ml preincubated with compound for 30 mins followed by LPS stimulation and measured after 4 hrs by RT-PCR analysis; format: functional, cell-based; details: dose 15.0 µg/ml, time 4.5 hrs
# Salmonella typhimurium [14] = test: Antibacterial activity against Salmonella typhimurium DT104 assessed as reduction in IL-4 mRNA level in ileum at 20 mg/kg, ip administered for 3 days and measured on day 7 by RT-PCR analysis; format: functional, organism-based; details: Salmonella enterica subsp. enterica serovar Typhimurium, time 7.0 day
# Salmonella typhimurium [15] = test: Antibacterial activity against Salmonella typhimurium DT104 in the presence of FeCl3 by MH broth based assay; format: functional, Salmonella enterica subsp. enterica serovar Typhimurium; details: Salmonella enterica
# RAW264.7 [16] = test: Anti-inflammatory activity in mouse RAW264.7 cells assessed as inhibition of LPS-induced IL-10 mRNA expression at 15 ug/ml preincubated with compound for 30 mins followed by LPS stimulation and measured after 4 hrs by RT-PCR analysis; format: functional, cell-based; details: dose 15.0 µg/ml, time 4.5 hrs
# Salmonella typhimurium [17] = test: Antibacterial activity against Salmonella typhimurium DT104 in the presence 25% inactivated mouse serum by MH broth based assay; format: functional, Salmonella enterica subsp. enterica serovar Typhimurium; details: Salmonella enterica
# Salmonella typhimurium [18] = test: Antibacterial activity against Salmonella typhimurium DT104 infected in ICR mouse model assessed as reduction in bacterial translocation to spleen at 2 mg/kg, ip administered for 3 days and measured on day 7 by serial dilution method; format: functional, organism-based; details: Salmonella enterica subsp. enterica serovar Typhimurium, time 7.0 day
# RAW264.7 [19] = test: Inhibition of LPS-stimulated IL-1beta production in mouse RAW264.7 cells at 1 to 128 ug/ml incubated for 24 hrs by ELISA analysis; format: functional, cell-based; details: dose 1-128 µg/ml
# [20] = Antibacterial activity against Salmonella dublin CICC 21497 incubated overnight by standard microtiter dilution method; format: functional, Salmonella enterica subsp. enterica serovar Dublin; details: Salmonella enterica
# Lipopolysaccharide (LPS) = test: Displacement of BODIPY-TR-cadaverine from Salmonella typhimurium LPS assessed as increase in fluorescence intensity by fluorescence spectrophotometric analysis; details: Salmonella enterica subsp. enterica serovar Typhimurium; dose 0.25-8 µg/ml
# Salmonella typhimurium [21] = test: Antibacterial activity against Salmonella typhimurium DT104 infected in mouse RAW264.7 cells assessed as reduction in bacterial cells at 1 times of MIC measured for 180 mins by MH agar based serial dilution method; format: functional, organism-based; details: Salmonella enterica subsp. enterica serovar Typhimurium
# [22] = test system: Staphylococcus epidermidis; test: Antibacterial activity against methicillin-resistant Staphylococcus epidermidis ATCC 12228 incubated overnight by standard microtiter dilution method; format: functional
# [23] = Antibacterial activity against Salmonella blockley CICC 21489 incubated overnight by standard microtiter dilution method; format: functional, Salmonella enterica subsp. enterica serovar Blockley; details: Salmonella enterica
# Salmonella typhimurium [24] = test: Antibacterial activity against multi-drug resistant Salmonella typhimurium DT104 assessed as inhibition of bacterial growth at 0.5 to 2 times of MIC by MH agar based serial dilution method; format: functional, organism-based; details: Salmonella enterica subsp. enterica serovar Typhimurium, time <= 120.0 min, TDE = time-dependent effect
# Salmonella typhimurium [25] = test: Antibacterial activity against Salmonella typhimurium DT104 assessed as reduction in IL-1beta mRNA level in ileum at 20 mg/kg, ip administered for 3 days and measured on day 7 by RT-PCR analysis; format: functional, organism-based; details: Salmonella enterica subsp. enterica serovar Typhimurium, time 7.0 day
# Staphylococcus aureus = test: Antibacterial activity against Staphylococcus aureus ATCC 29213 incubated overnight by standard microtiter dilution method; format: functional
# Cell membrane [26] = test: Induction of membrane damage in Salmonella typhimurium DT104 assessed as membrane devastation at 1 times of MIC incubated for 60 mins by atomic force microscopic analysis; format: subcellular; details: Salmonella enterica subsp. enterica serovar Typhimurium
# Cell membrane [27] = test: Induction of membrane damage in Salmonella typhimurium DT104 assessed as substantial damage to bacterial envelope at 1 times of MIC incubated for 60 mins by transmission electron microscopic analysis; format: subcellular; details: Salmonella enterica subsp. enterica serovar Typhimurium
# Candida albicans = test: Antifungal activity against Candida albicans ATCC 10231 incubated overnight by standard microtiter dilution method; format: functional
# [28] = Antibacterial activity against Salmonella enterica subsp. enterica serovar Choleraesuis CICC 21493 incubated overnight by standard microtiter dilution method; format: functional
# [29] = Antibacterial activity against Salmonella paratyphi C CICC 21512 incubated overnight by standard microtiter dilution method; format: functional, Salmonella enterica subsp. enterica serovar Paratyphi C; details: Salmonella enterica
structure (smiles),measurement,setting,value
C[C@@H](O)[C@H](NC(=O)[C@H](CS)NC(=O)[C@H](CCCCN)NC(=O)[C@H](Cc1c[nH]c2ccccc12)NC(=O)[C@H](CCCCN)NC(=O)[C@@H](N)Cc1c[nH]c2ccccc12)C(=O)N[C@@H](CCCCN)C(=O)N[C@@H](CO)C(=O)NCC(=O)N[C@@H](CS)C(=O)N[C@@H](CCCCN)C(=O)N[C@@H](Cc1c[nH]c2ccccc12)C(=O)N[C@@H](CCCCN)C(=O)N[C@@H](Cc1c[nH]c2ccccc12)C(N)=O (H-WKWKCTKSGCKWKW-NH2),Activity,Salmonella typhimurium [1],Active
same,inhibition,RAW264.7 [2],Active
same,inhibition,RAW264.7 [3],Dose-Dependent Effect
same,MIC,Salmonella typhimurium [4],4 µg/mL
same,Activity,Salmonella typhimurium [5],Active
same,MIC,Escherichia coli,4 µg/mL
same,MIC,Salmonella typhimurium [6],4 µg/mL
same,Activity,Salmonella typhimurium [7],Active
same,Activity,Salmonella typhimurium [8],Active
same,MIC,Enterococcus faecalis,2 µg/mL
same,MIC,Salmonella typhimurium [9],4 µg/mL
same,Activity,Lipid bilayer,Active
same,inhibition,RAW264.7 [10],Active
same,MHC,Erythrocyte,> 128 µg/mL
same,Activity,Salmonella typhimurium [11],Active
same,Activity,Salmonella typhimurium [12],Active
same,inhibition,RAW264.7 [13],Active
same,Activity,Salmonella typhimurium [14],Active
same,MIC,Salmonella typhimurium [15],8 µg/mL
same,inhibition,RAW264.7 [16],Active
same,MIC,Salmonella typhimurium [17],16 µg/mL
same,Activity,Salmonella typhimurium [18],Active
same,inhibition,RAW264.7 [19],Active
same,MIC,[20],8 µg/mL
same,Activity,Lipopolysaccharide (LPS),Dose-Dependent Effect
same,Activity,Salmonella typhimurium [21],Active
same,MIC,[22],4 µg/mL
same,MIC,[23],8 µg/mL
same,Activity,Salmonella typhimurium [24],Tde
same,Activity,Salmonella typhimurium [25],Active
same,MIC,Staphylococcus aureus,4 µg/mL
same,Activity,Cell membrane [26],Active
same,Activity,Cell membrane [27],Active
same,MIC,Candida albicans,2 µg/mL
same,MIC,[28],8 µg/mL
same,MIC,[29],4 µg/mL

# From ChEMBL document CHEMBL5352429, “Designed symmetrical β-hairpin peptides for treating multidrug-resistant salmonella typhimurium infections” (Eur J Med Chem, 2022)
